According to PMC6628435, “Chemical Synthesis, Proper Folding, Nav Channel Selectivity Profile and Analgesic Properties of the Spider Peptide Phlotoxin 1” (Toxins, 2019):
Bridge positions count the residues as written; N and C are the ends. Peptide text beside a SMILES is read from it.

Legend:
Nav1.3/β1 = assay: Two-electrode voltage-clamp on Xenopus laevis oocytes expressing Nav1.3/β1; format: cell-based
Source text: (§1) Using the two-electrode voltage-clamp technique on Xenopus laevis oocytes, the effect of PhlTx1 was also compared on eight different cloned vertebrate Nav channels co-expressed with the β1 subunit (Nav1.1-1.8/β1) and on the neuronal insect Nav channel, para, co-expressed with the tipE subunit (Figure 3 and Figure 4). […] Normalized current-voltage relationships (I-V curve) of Nav1.2/β1 and Nav1.3/β1 channels seemed to be shifted towards more negative potentials when PhlTx1 was applied, but shifts were not statistically significant […] (Figure 4). The activation phase of the other studied Nav channel subtypes was not affected. No obvious alteration in channel availability was observed, except a 5-mV negative shift for Nav1.3/β1, although that was also non-significant (p > 0.05).
(§2) Figure 4 1 µM of PhlTx1 was tested on Nav1.1/β1, Nav1.2/β1, Nav1.3/β1, Nav1.4/β1, Nav1.5/β1, Nav1.6/β1, Nav1.8/β1 and para/tipE (n ≥ 3). Left column: current traces were evoked by a 50-ms depolarization to the voltage of maximum sodium influx, depending on the Nav studied, from a holding potential of −90 mV. At 1 µM PhlTx1, all studied Nav channels, except Nav1.4/β1, were blocked for about 10% (no toxin: *). The current of Nav1.4/β1 was reduced for about 35 ± 5%. Middle column: normalized I-V curves reveal no significant shift of the activation voltage (p > 0.05). […]

para/tipE = assay: Two-electrode voltage-clamp on Xenopus laevis oocytes expressing insect Nav channel para/tipE; format: cell-based, Fruit fly; conditions: 1 µM; voltage of maximum sodium influx, holding −90 mV; oocytes TEVC; n ≥ 3
Source text: as §1, §2

[1] = test system: formalin-induced spontaneous pain behavior; assay: Formalin pain test in mice after intrathecal injection; format: in vivo, C57BL/6J mice; conditions: intrathecal, 10 µL; PhlTx1 100 pmoles (n = 5), morphine 0.25 mg (n = 6); 10 µL 5% formalin in hindpaw; versus vehicle
[2] = mice; PhlTx1 100 pmoles or morphine 0.25 mg in 10 µL
human Nav1.7 channel = conditions: ref [47]; cited from earlier work

CC(C)C[C@@H]1NC(=O)[C@@H](NC(=O)[C@H](C)N)CSSC[C@@H]2NC(=O)[C@@H]3CSSC[C@@H](C(=O)N[C@@H](CCCNC(=N)N)C(=O)N[C@@H](Cc4ccc(O)cc4)C(=O)N[C@@H](CCCCN)C(=O)N[C@@H](CC(C)C)C(=O)N[C@@H](Cc4ccccc4)C(=O)O)NC(=O)[C@H](Cc4c[nH]c5ccccc45)NC(=O)[C@@H]4CCCN4C(=O)[C@H](Cc4ccc(O)cc4)NC(=O)[C@H](CCCCN)NC(=O)[C@H](Cc4c[nH]c5ccccc45)NC(=O)[C@H](CCC(=O)O)NC(=O)[C@H](CSSC[C@H](NC(=O)[C@H](CO)NC(=O)[C@H](CC(=O)O)NC(=O)[C@H](Cc4c[nH]c5ccccc45)NC(=O)[C@H](CCC(N)=O)NC(=O)CNC1=O)C(=O)N[C@@H](CC(=O)O)C(=O)N1CCC[C@H]1C(=O)N[C@@H](CCCCN)C(=O)N[C@@H](C)C(=O)N[C@@H](CO)C(=O)N[C@@H](CCCCN)C(=O)N3)NC(=O)[C@H](C)NC(=O)[C@H](Cc1ccc(O)cc1)NC(=O)[C@H](CC(N)=O)NC(=O)[C@@H]1CCCN1C2=O [PhlTx1, Phlotoxin-1] (H-ACLGQWDSCDPKASKCCPNYACEWKYPWCRYKLF-OH; disulfide 2-17, 9-22, 16-29; N-terminus and C-terminus assumed)
negative shift in channel availability (Nav1.3/β1; 1 µM PhlTx1, non-significant (p > 0.05)): 5 mV | block of sodium current (Nav1.3/β1; 1 µM, voltage of maximum sodium influx, holding −90 mV, oocytes TEVC, n ≥ 3): about 10% | block of sodium current (para/tipE): about 10% | formalin-induced pain behavior (licking), Phase II (inflammation, 10–45 min) [1]: substantially reduced the response | formalin-induced pain behavior, Phase I (acute pain, 0–10 min) [1]: substantially reduced the response | neurotoxicity after intrathecal injection [2]: no neurotoxicity was observed | IC50 (human Nav1.7 channel): 250 nM
